Measured values taken from US20180154142A1, “METHODS AND DEVICES FOR TREATMENT OF TUMORS WITH NANO-PULSE STIMULATION” (Old Dominion University Research Foundation, priority 2016, published 2018).

Assays:
4T1 cells [1] = experiment: extracellular ATP release from treated 4T1 cells, luciferase/luciferin-based ATP determination kit; type: cell-based, mouse; conditions: mitoxantrone 1 μM positive control; change from 4 hours to 24 hours following treatment; FIG. 18B
Procedure: (§1) Cells then were placed in a 6 well plate for 1 hour or 20 hours. Cells with media but no NPS treatment served as negative control and a known ICD inducer, mitoxantrone (1 μM) was added to cells as a positive control. Cell surface-exposed CRT was measured by flow cytometry (FACSAria). Extracellular ATP concentrations were quantified by the luciferase/luciferin-based ATP determination Kit (A22066, Thermo-Fisher). The amount of HMGB1 in the supernatant was determined by HMGB1 ELISA Kit (MBS722248, MyBioSource).

4T1 cells [2] = experiment: cell surface calreticulin (CRT) on treated 4T1 cells, flow cytometry; type: cell-based, mouse; conditions: mitoxantrone 1 μM positive control; change from 4 hours to 24 hours following treatment; FIG. 18A
Procedure: as §1

O=C1c2c(O)ccc(O)c2C(=O)c2c(NCCNCCO)ccc(NCCNCCO)c21 [MXT, mitoxantrone]
levels of ATP release in the supernatants (4T1 cells [1]): increases | levels of calreticulin, mean fluorescence intensity (MFI) (4T1 cells [2]): largest increase
